Results taken from patent US20130005743A1, “New positive allosteric modulators of nicotinic acetylcholine receptor” (H. Lundbeck A/S, priority 2011, published 2013).

Target: T1, human α7 receptor (Homo sapiens, UniProt P36544)
T1 construct: host or cells: rat GH4C1 cell line
Test: α7 NNR flux assay (FDSS Ca assay, positive allosteric modulation of acetylcholine response)
Assay type: cell-based
Details: human α7 receptor stably expressed in rat GH4C1 cells; acetylcholine 20 μM; % modulation relative to PNU-120596 set to 100%
Procedure: The nicotinic acetylcholine receptor α7 is a calcium-permeable ion channel, whose activity can be measured by over expression in mammalian cells or oocytes. In this version of the assay, the human α7 receptor is stably expressed in the rat GH4C1 cell line. The assay was used to identify positive allosteric modulators (PAMs) of the α7 receptor. Activation of the channel was measured by loading cells with the calcium-sensitive fluorescent dye. Calcium-4 (Assay kit from Molecular Devices), and then measuring real-time changes, in fluorescence upon treatment with test compounds.
The cell line ChanClone GH4C1-nAChRalpha7 from Genionics was seeded from frozen stock in 384-well plates in culture media 2-3 days before experiment to form an approximately 80% confluent layer on the day of experiment.
The cell culture were split into “22.5 cm×22.5 cm”-plates with approximately 100×10^3 cells/cm^2. After four days incubation in a humidified incubator at 37° C. and 5% CO2, it had grown to an 80-90% confluent layer, and the cells were harvested.
Two or three days before the experiment the cells were seeded in 384 well plates from Greiner bio-one (781946, CELLCOAT, Poly-D-Lysine, black, μClear).
The cells were seeded in 384 well plates with 30 μL/well (30000 cells/well) while stirring the cell suspension or otherwise preventing the cells from precipitating.
The loading buffer was 5% v/v Calcium-4 Kit and 2.5 mM Probenecid in assay buffer.
Culture media was removed from the cell plates and 20 μL loading buffer was added in each well. The cell plates were placed in trays and incubated 90 minutes in the incubator (37° C.). Thereafter the plates were incubated 30 minutes at room temperature, still protected from light.
The assay buffer was HBSS with 20 mM HEPES, pH 7.4 and 3 mM CaCl2.
[…] 10 mM compound solution in DMSO was diluted in 50 μL assay buffer. The final test concentrations in the cell plates were 20-10-5-2.5-1.25-0.625-0.312-0.156-0.078-0.039 μM. Assay buffer and 3 μM PNU-120596 were used for control. The agonist acetylcholine was added to a final concentration of 20 μM (˜EC100). In the FDSS7000 the Ex480-Em540 was measured with 1 second intervals. The baseline was made of 5 frames before addition of test compounds, and 95 frames more were made before addition of acetylcholine. The measurement stopped 30 frames after the 2nd addition. Raw data for each well were collected as “the maximum fluorescence count” in the interval 100-131 seconds and as “the average fluorescence count” in the interval 96-100 seconds. The positive allosteric modulation in the 2nd addition was the enhancement of agonist response with test compound compared to agonist alone.
Results were calculated as % modulation of test compound compared to the reference PNU-120596 set to 100%.

T1 sequence (P36544 23-502): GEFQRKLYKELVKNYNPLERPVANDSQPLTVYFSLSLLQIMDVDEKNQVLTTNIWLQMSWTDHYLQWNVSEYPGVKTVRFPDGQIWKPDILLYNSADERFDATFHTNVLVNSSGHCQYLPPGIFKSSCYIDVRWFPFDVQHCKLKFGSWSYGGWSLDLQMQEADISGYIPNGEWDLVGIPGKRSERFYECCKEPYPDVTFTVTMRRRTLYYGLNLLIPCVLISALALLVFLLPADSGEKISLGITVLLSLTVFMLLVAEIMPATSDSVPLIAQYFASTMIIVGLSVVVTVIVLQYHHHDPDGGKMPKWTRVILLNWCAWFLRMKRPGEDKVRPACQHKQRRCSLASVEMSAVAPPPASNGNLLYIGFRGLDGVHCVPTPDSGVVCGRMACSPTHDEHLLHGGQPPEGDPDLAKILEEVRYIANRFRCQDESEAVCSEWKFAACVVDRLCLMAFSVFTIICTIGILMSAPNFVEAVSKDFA

| EC50 | Structure (SMILES) |
| --- | --- |
| 6.3 µM | Cc1cc(C(=O)Nc2c(C)ccnc2C)c2c(C)nn(-c3ccc(C#N)cc3)c2n1 [Compound 14, 1-(4-Cyano-phenyl)-3,6-dimethyl-1H-pyrazolo[3,4-b]pyridine-4-carboxylic acid (2,4-dimethyl-pyridin-3-yl)-amide] |
| 6 µM | COc1ccc(-n2nc(C)c3c(C(=O)Nc4c(C)ccnc4C)ccnc32)cc1 [Compound 15, 1-(4-Methoxy-phenyl)-3-methyl-1H-pyrazolo[3,4-b]pyridine-4-carboxylic acid (2,4-dimethyl-pyridin-3-yl)-amide] |
| 5.5 µM | COc1ccc(-n2nc(C)c3c(C(=O)Nc4c(C)ccnc4C)cc(C)nc32)cn1 [Compound 16, 1-(6-Methoxy-pyridin-3-yl)-3,6-dimethyl-1H-pyrazolo[3,4-b]pyridine-4-carboxylic acid (2,4-dimethyl-pyridin-3-yl)-amide] |
| 11 µM | Cc1cc(C(=O)Nc2c(C)ccnc2C)c2c(C)nn(-c3ccc(OC(F)(F)F)cc3)c2n1 [Compound 17, 3,6-Dimethyl-1-(4-trifluoromethoxy-phenyl)-1H-pyrazolo[3,4-b]pyridine-4-carboxylic acid (2,4-dimethyl-pyridin-3-yl)-amide] |
| 6.5 µM | COc1ccc(-n2nc(C)c3c(C(=O)Nc4c(C)cc(C)nc4C)cc(C)nc32)cc1 [Compound 18, 1-(4-Methoxy-phenyl)-3,6-dimethyl-1H-pyrazolo[3,4-b]pyridine-4-carboxylic acid (2,4,6-trimethyl-pyridin-3-yl)-amide] |
| 3.3 µM | Cc1cc(C(=O)Nc2c(C)ccnc2C)c2c(C)nn(-c3ccc(OC(F)F)cc3)c2n1 [Compound 19, 1-(4-Difluoromethoxy-phenyl)-3,6-dimethyl-1H-pyrazolo[3,4-b]pyridine-4-carboxylic acid (2,4-dimethyl-pyridin-3-yl)-amide] |
| 4.6 µM | COc1ccc(-n2nc(C)c3c(C(=O)Nc4cncnc4C)cc(C)nc32)cc1 [Compound 20, 1-(4-Methoxy-phenyl)-3,6-dimethyl-1H-pyrazolo[3,4-b]pyridine-4-carboxylic acid (4-methyl-pyrimidin-5-yl)-amide] |
| 3.6 µM | Cc1cc(C(=O)Nc2c(C)ccnc2C)c2c(C)nn(-c3ccc(N(C)C)cc3)c2n1 [Compound 23, 1-(4-Dimethylamino-phenyl)-3,6-dimethyl-1H-pyrazolo[3,4-b]pyridine-4-carboxylic acid (2,4-dimethyl-pyridin-3-yl)-amide] |
| 7.2 µM | Cc1cc(C(=O)Nc2c(C)ccnc2C)c2c(C)nn(-c3ccsc3)c2n1 [Compound 25, 3,6-Dimethyl-1-thiophen-3-yl-1H-pyrazolo[3,4-b]pyridine-4-carboxylic acid (2,4-dimethyl-pyridin-3-yl)-amide] |
| 11 µM | Cc1cc(C(=O)Nc2c(C)ccnc2C)c2c(C)nn(-c3cncnc3)c2n1 [Compound 26, 3,6-Dimethyl-1-pyrimidin-5-yl-1H-pyrazolo[3,4-b]pyridine-4-carboxylic acid (2,4-dimethyl-pyridin-3-yl)-amide] |
| 6.5 µM | COc1ccnc(C)c1NC(=O)c1cc(C)nc2c1c(C)nn2-c1ccccc1 [Compound 28, 3,6-Dimethyl-1-phenyl-1H-pyrazolo[3,4-b]pyridine-4-carboxylic acid (4-methoxy-2-methyl-pyridin-3-yl)-amide] |
| 2.7 µM | COc1ccc(-n2nc(C)c3c(C(=O)Nc4cnccc4N(C)C)cc(C)nc32)cc1 [Compound 30, 1-(4-Methoxy-phenyl)-3,6-dimethyl-1H-pyrazolo[3,4-b]pyridine-4-carboxylic acid (4-dimethylamino-pyridin-3-yl)-amide] |
| 8.9 µM | COc1ccc(-n2nc(C)c3c(C(=O)Nc4cnc(C)cc4C)cc(C)nc32)cc1 [Compound 33, 1-(4-Methoxy-phenyl)-3,6-dimethyl-1H-pyrazolo[3,4-b]pyridine-4-carboxylic acid (4,6-dimethyl-pyridin-3-yl)-amide] |

Further lines, the molecule ahead of its results:

| Structure (SMILES) | EC50 |
| --- | --- |
| Cc1cc(C(=O)Nc2c(C)ccnc2C)c2c(C)nn(-c3ccccc3)c2n1 [Compound 2, 3,6-Dimethyl-1-phenyl-1H-pyrazolo[3,4-b]pyridine-4-carboxylic acid (2,4-dimethyl-pyridin-3-yl)-amide] | 3.6 µM |
| Cc1cc(C(=O)Nc2c(C)cncc2C)c2c(C)nn(-c3ccccc3)c2n1 [Compound 3, 3,6-Dimethyl-1-phenyl-1H-pyrazolo[3,4-b]pyridine-4-carboxylic acid (3,5-dimethyl-pyridin-4-yl)-amide] | 4.1 µM |
| COc1ccccc1-n1nc(C)c2c(C(=O)Nc3c(C)ccnc3C)cc(C)nc21 [Compound 4, 1-(2-Methoxy-phenyl)-3,6-dimethyl-1H-pyrazolo[3,4-b]pyridine-4-carboxylic acid (2,4-dimethyl-pyridin-3-yl)-amide] | 7.1 µM |
| COc1ccc(-n2nc(C)c3c(C(=O)Nc4cccnc4C)cc(C)nc32)cc1 [Compound 5, 1-(4-Methoxy-phenyl)-3,6-dimethyl-1H-pyrazolo[3,4-b]pyridine-4-carboxylic acid (2-methyl-pyridin-3-yl)-amide] | 3.3 µM |
| Cc1ccc(-n2nc(C)c3c(C(=O)Nc4c(C)ccnc4C)cc(C)nc32)cc1 [Compound 6, 3,6-Dimethyl-1-p-tolyl-1H-pyrazolo[3,4-b]pyridine-4-carboxylic acid (2,4-dimethyl-pyridin-3-yl)-amide] | 2.5 µM |
| COc1ccc(-n2nc(C)c3c(C(=O)Nc4c(C)ccnc4OC)cc(C)nc32)cc1 [Compound 7, 1-(4-Methoxy-phenyl)-3,6-dimethyl-1H-pyrazolo[3,4-b]pyridine-4-carboxylic acid (2-methoxy-4-methyl-pyridin-3-yl)-amide] | 2.2 µM |
| COc1ccc(-n2nc(C)c3c(C(=O)Nc4cnccc4C)cc(C)nc32)cc1 [Compound 8, 1-(4-Methoxy-phenyl)-3,6-dimethyl-1H-pyrazolo[3,4-b]pyridine-4-carboxylic acid (4-methyl-pyridin-3-yl)-amide] | 5.1 µM |
| COc1cccc(-n2nc(C)c3c(C(=O)Nc4c(C)ccnc4C)cc(C)nc32)c1 [Compound 9, 1-(3-Methoxy-phenyl)-3,6-dimethyl-1H-pyrazolo[3,4-b]pyridine-4-carboxylic acid (2,4-dimethyl-pyridin-3-yl)-amide] | 4 µM |
| Cc1ccc(-n2nc(C)c3c(C(=O)Nc4c(C)ccnc4C)cc(C)nc32)cn1 [Compound 10, 3,6-Dimethyl-1-(6-methyl-pyridin-3-yl)-1H-pyrazolo[3,4-b]pyridine-4-carboxylic acid (2,4-dimethyl-pyridin-3-yl)-amide] | 7.2 µM |
| COc1ccc(-n2ncc3c(C(=O)Nc4c(C)ccnc4C)cc(C)nc32)cc1 [Compound 11, 1-(4-Methoxy-phenyl)-6-methyl-1H-pyrazolo[3,4-b]pyridine-4-carboxylic acid (2,4-dimethyl-pyridin-3-yl)-amide] | 2.8 µM |
| COc1ccc(-n2nc(C)c3c(C(=O)Nc4c(C)ncnc4C)cc(C)nc32)cc1 [Compound 12, 1-(4-Methoxy-phenyl)-3,6-dimethyl-1H-pyrazolo[3,4-b]pyridine-4-carboxylic acid (4,6-dimethyl-pyrimidin-5-yl)-amide] | 4.9 µM |
| Cc1cc(C(=O)Nc2c(C)ccnc2C)c2c(C)nn(-c3ccc(F)cc3)c2n1 [Compound 13, 1-(4-Fluoro-phenyl)-3,6-dimethyl-1H-pyrazolo[3,4-b]pyridine-4-carboxylic acid (2,4-dimethyl-pyridin-3-yl)-amide] | 7.8 µM |
